{"source": "patent US9128097B2", "about": "“Method and kit for assessing viable cells” (ChemoMetec A/S, priority 2008, dated 2015)", "key": {"[1]": {"test_system": "Drosophila S2 cells", "assay": "NAM/PI staining of Drosophila S2 cells, fluorescence microscopy", "type": "cell-based, Drosophila melanogaster", "details": "S2 cells diluted 10 times in PBS; 10 μg/mL NAM", "method": "Materials and Methods. Drosophila S2 cells were grown at 28° C. without shaking in Schneider's Drosophila medium (Invitrogen, #21720) supplemented with 10% heat-inactivated fetal bovine serum (Invitrogen, #10108-165). S2 cells (cell density 1.7×10^7, 99% viable determined using the YC-100 NucleoCounter system with diploid settings following the manufacturer's (ChemoMetec) protocol) were diluted 10 times in PBS and stained with 10 μg/mL NAM (Sigma, #01665). Cells were loaded into a NucleoCassette, containing the DNA stain propidium iodide (PI). The cells were investigated using an Olympus IX50 fluorescence microscope, and images were captured using a Lumenera CCD camera and in-house developed software. PI and NAM fluorescence were detected using, respectively, U-MWG2 (green long pass: 510-550 nm) and U-MNUA2 (UV band pass, 330-385 nm) filter cubes (Olympus)."}, "[2]": {"test_system": "primary murine splenocytes", "assay": "NAM/PI staining of primary murine splenocytes", "type": "cell-based, C57BL/6 mouse", "details": "splenocytes 90% viable; 10 μL NAM (100 μg pr. mL DMSO) to 90 μL cells", "method": "Materials and Methods. The spleen from a C57BL/6 mouse was placed in ice-cold PBS and gently ground using the end of a sterile syringe. The suspension was centrifuged at 300 g for 10 minutes; the pellet was resuspended in 1 mL 0.83% NH4Cl to lyse erythrocytes and incubated for 3 minutes on ice. The cells were then added 14 mL PBS and centrifuged at 300 g for 10 minutes. The splenocytes were resuspended in RPMI (Invitrogen, #61870) supplemented with 10% heat-inactivated fetal bovine serum (Invitrogen, #10108-165), 100 U/mL penicillin and 100 μg/mL streptomycin (Invitrogen, #15140-122). The cell clumps were allowed to sediment and were removed by pipetting, and the resulting single cell suspension was used. 90 μL splenocytes (cell density 1.7×10^6, 90% viable determined using the NC-100 NucleoCounter system following the manufacturer's (ChemoMetec A/S) protocol) were added 10 μL NAM (N-(9-acridinyl)maleimide, Sigma, #01665, CAS no. 49759-20-8) dissolved in DMSO (100 μg NAM pr. mL DMSO) and mixed by pipetting. […] The cells were investigated using an Olympus IX50 fluorescence microscope, and images were captured using a Lumenera CCD camera and in-house developed software. PI and NAM fluorescence were detected using, respectively, U-MWG2 (green long pass: 510-550 nm) and U-MNUA2 (UV band pass, 330-385 nm) filter cubes (Olympus)."}, "[3]": {"test_system": "bone marrow derived dendritic cells (BM-DCs)", "assay": "Staining of bone marrow derived dendritic cells with labelling agent and PI", "type": "cell-based, murine", "details": "dendritic cells 97% viable; 10 μL NAM (100 μg pr. mL DMSO) to 90 μL cells", "from_the_text": "Materials and Methods. Dendritic cells were developed from murine bone marrow derived cells as described by “Lutz, M. B., N. Kukutsch, A. L. Ogilvie, S. Rossner, F. Koch, N. Romani, and G. Schuler. 1999. An advanced culture method for generating large quantities of highly pure dendritic cells from mouse bone marrow. J Immunol Methods 223:77-92”. Bone marrow cells were harvested aseptically in the laminar flow hood as described in example 11. Washed and resuspended bone marrow cells were resuspended in RPMI 1640 (Invitrogen, #61870) supplemented with 10% heat-inactivated fetal bovine serum (Invitrogen, #10108-165), 100 U/mL penicillin and 100 μg/mL streptomycin (Invitrogen, #15140-122). […] 90 μL dendritic cells (cell density 1.2×10^6, 97% viable determined using the NC-100 NucleoCounter system following the manufacturer's (ChemoMetec A/S) protocol) were added 10 μL NAM (N-(9-acridinyl)maleimide, Sigma, #01665, CAS no. 49759-20-8) dissolved in DMSO (100 μg NAM pr. mL DMSO) and mixed by pipetting. […] The cells were investigated using an Olympus IX50 fluorescence microscope, and images were captured using a Lumenera CCD camera and in-house developed software. PI and NAM fluorescence were detected using, respectively, U-MWG2 (green long pass: 510-550 nm) and U-MNUA2 (UV band pass, 330-385 nm) filter cubes (Olympus). […]"}}}
{"smiles": "O=C1C=CC(=O)N1c1c2ccccc2nc2ccccc12", "note": "[NAM, N-(9-acridinyl)maleimide]", "values": [{"measurement": "staining of cells versus PI", "setting": "[1]", "result": "NAM and PI were found to complementary stain S2 cells"}, {"measurement": "staining of cells (UV filter) versus PI positive cells", "setting": "[2]", "result": "nearly all the primary spleen cells were stained by NAM"}, {"measurement": "staining of cells (UV filter) versus PI positive cells", "setting": "[3]", "result": "nearly all the dendritic cells were stained by NAM"}]}
